# Where two headings read alike, the source gives them in different places.
# Key:
# [1] = molecular target: Human serotonin 5-HT6 receptor (Homo sapiens, UniProt P50406); test: [3H]LSD binding assay on cloned 5-HT6 receptor
# [2] = IC50 (nM), binding affinity to the 5-HT6 receptor, Table 2, 1.87 nM [3H]LSD, cloned human receptor membranes from Sf21 cells, 37° C. 60 min
# Human serotonin 5-HT6 receptor, sequence (P50406 whole entry): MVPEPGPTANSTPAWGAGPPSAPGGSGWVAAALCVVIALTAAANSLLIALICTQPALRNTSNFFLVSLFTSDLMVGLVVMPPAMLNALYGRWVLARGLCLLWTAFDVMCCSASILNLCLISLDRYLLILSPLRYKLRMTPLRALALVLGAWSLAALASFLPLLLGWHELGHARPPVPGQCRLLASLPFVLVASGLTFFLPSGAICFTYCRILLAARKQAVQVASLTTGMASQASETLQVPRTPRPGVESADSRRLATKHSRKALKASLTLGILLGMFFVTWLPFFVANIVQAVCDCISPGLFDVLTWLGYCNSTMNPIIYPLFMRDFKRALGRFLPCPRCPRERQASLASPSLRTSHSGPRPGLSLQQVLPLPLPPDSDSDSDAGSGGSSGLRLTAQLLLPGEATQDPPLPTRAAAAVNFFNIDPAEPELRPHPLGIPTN
Structure (SMILES),"IC50 [1, 2] [nM]",melting point [°C],IC50 [1] [nM]
"CN1CCN(c2cc(Cl)cc3c2S(=O)(=O)N(Cc2ccc(F)cc2)C(=O)N3Cc2ccccc2)CC1 [Example 4, 4-Benzyl-6-chloro-2-(4-fluoro-benzyl)-8-(4-methyl-piperazin-1-yl)-1,1-dioxo-1,4-dihydro-2H-1λ^6-benzo[1,2,4]thiadiazin-3-one]",5.4,112 to 113,
"CN1CCN(c2cc(Cl)cc3c2S(=O)(=O)N(Cc2cccc(Cl)c2)C(=O)N3Cc2ccccc2)CC1 [Example 6, 4-Benzyl-6-chloro-2-(3-chloro-benzyl)-8-(4-methyl-piperazin-1-yl)-1,1-dioxo-1,4-dihydro-2H-1λ^6-benzo[1,2,4]thiadiazin-3-one]",5.2,87 to 88,
"CN1CCN(c2cc(Cl)cc3c2S(=O)(=O)N(Cc2ccccc2Br)C(=O)N3Cc2ccccc2)CC1 [Example 8, 4-Benzyl-2-(2-bromo-benzyl)-6-chloro-8-(4-methyl-piperazin-1-yl)-1,1-dioxo-1,4-dihydro-2H-1λ^6-benzo[1,2,4]thiadiazin-3-one]",8.9,107 to 109,
"CN1CCN(c2cc(Cl)cc3c2S(=O)(=O)N(Cc2ccc(Br)cc2)C(=O)N3Cc2ccccc2)CC1 [Example 10, 4-Benzyl-2-(4-bromo-benzyl)-6-chloro-8-(4-methyl-piperazin-1-yl)-1,1-dioxo-1,4-dihydro-2H-1λ^6-benzo[1,2,4]thiadiazin-3-one]",6.1,115 to 116,
"Cc1cccc(CN2C(=O)N(Cc3ccccc3)c3cc(Cl)cc(N4CCN(C)CC4)c3S2(=O)=O)c1 [Example 14, 4-Benzyl-6-chloro-2-(3-methyl-benzyl)-8-(4-methyl-piperazin-1-yl)-1,1-dioxo-1,4-dihydro-2H-1λ^6-benzo[1,2,4]thiadiazin-3-one]",11.6,188 to 191,
"Cc1ccc(CN2C(=O)N(Cc3ccccc3)c3cc(Cl)cc(N4CCN(C)CC4)c3S2(=O)=O)cc1 [Example 15, 4-Benzyl-6-chloro-2-(4-methyl-benzyl)-8-(4-methyl-piperazin-1-yl)-1,1-dioxo-1,4-dihydro-2H-1λ^6-benzo[1,2,4]thiadiazin-3-one]",5.4,180 to 185,
"COc1ccccc1CN1C(=O)N(Cc2ccccc2)c2cc(Cl)cc(N3CCN(C)CC3)c2S1(=O)=O [Example 16, 4-Benzyl-6-chloro-2-(2-methoxy-benzyl)-8-(4-methyl-piperazin-1-yl)-1,1-dioxo-1,4-dihydro-2H-1λ^6-benzo[1,2,4]thiadiazin-3-one]",4.6,93 to 94,
"CN1CCN(c2cc(Cl)cc3c2S(=O)(=O)N(Cc2ccccc2[N+](=O)[O-])C(=O)N3Cc2ccccc2)CC1 [Example 20, 4-Benzyl-6-chloro-8-(4-methyl-piperazin-1-yl)-2-(2-nitro-benzyl)-1,1-dioxo-1,4-dihydro-2H-1λ^6-benzo[1,2,4]thiadiazin-3-one]",12.3,84 to 86,
"CN1CCN(c2cc(Cl)cc3c2S(=O)(=O)N(Cc2ccc([N+](=O)[O-])cc2)C(=O)N3Cc2ccccc2)CC1 [Example 22, 4-Benzyl-6-chloro-8-(4-methyl-piperazin-1-yl)-2-(4-nitro-benzyl)-1,1-dioxo-1,4-dihydro-2H-1λ^6-benzo[1,2,4]thiadiazin-3-one]",8.1,163 to 164,
"COC(=O)c1ccc(CN2C(=O)N(Cc3ccccc3)c3cc(Cl)cc(N4CCN(C)CC4)c3S2(=O)=O)cc1 [Example 23, 4-[4-Benzyl-6-chloro-8-(4-methyl-piperazin-1-yl)-1,1,3-trioxo-3,4-dihydro-1H-1λ^6-benzo[1,2,4]thiadiazin-2-ylmethyl]-benzoic acid methyl ester]",28.8,140 to 143,
"CN1CCN(c2cc(Cl)cc3c2S(=O)(=O)N(Cc2ccc(C#N)cc2)C(=O)N3Cc2ccccc2)CC1 [Example 24, 4-[4-Benzyl-6-chloro-8-(4-methyl-piperazin-1-yl)-1,1,3-trioxo-3,4-dihydro-2H-1λ^6-benzo[1,2,4]thiadiazin-2-ylmethyl]-benzonitrile]",6.4,134 to 135,
"COc1ccccc1N1C(=O)N(Cc2ccccc2)c2cc(Cl)cc(N3CCN(C)CC3)c2S1(=O)=O [Example 28, 4-Benzyl-6-chloro-2-(2-methoxy-phenyl)-8-(4-methyl-piperazin-1-yl)-1,1-dioxo-1,4-dihydro-2H-1λ^6-benzo[1,2,4]thiadiazin-3-one]",7.1,119 to 120,
"COc1ccc(N2C(=O)N(Cc3ccccc3)c3cc(Cl)cc(N4CCN(C)CC4)c3S2(=O)=O)cc1 [Example 30, 4-Benzyl-6-chloro-2-(4-methoxy-phenyl)-8-(4-methyl-piperazin-1-yl)-1,1-dioxo-1,4-dihydro-2H-1λ^6-benzo[1,2,4]thiadiazin-3-one]",5.2,115 to 116,
"CN1CCN(c2cc(Cl)cc3c2S(=O)(=O)N(C)C(=O)N3C)CC1 [Example 31, 6-Chloro-2,4-dimethyl-8-(4-methyl-piperazin-1-yl)-1,1-dioxo-1,4-dihydro-2H-1λ^6-benzo[1,2,4]thiadiazin-3-one]",,,745
"O=C1N(Cc2ccccc2)c2cc(Cl)cc(N3CCNCC3)c2S(=O)(=O)N1Cc1cccc(F)c1 [Example 46, 4-Benzyl-6-chloro-2-(3-fluoro-benzyl)-1,1-dioxo-8-piperazin-1-yl-1,4-dihydro-2H-1λ^6-benzo[1,2,4]thiadiazin-3-one]",,154 to 155,
"CCCN1C(=O)N(Cc2ccccc2)c2cc(Cl)cc(N3CCNCC3)c2S1(=O)=O [Example 65, 4-Benzyl-6-chloro-2-propyl-1,1-dioxo-8-piperazin-1-yl-1,4-dihydro-2H-1λ^6-benzo[1,2,4]thiadiazin-3-one]",,148 to 150,
"O=C1N(Cc2ccccc2)c2cc(Cl)cc(N3CCN4CCC[C@@H]4C3)c2S(=O)(=O)N1Cc1ccccc1Cl [Example 74, 4-Benzyl-6-chloro-2-(2-chloro-benzyl)-8-[(6R)-1,4-diazabicyclo[4.3.0]non-4-yl]-1,1-dioxo-1,4-dihydro-2H-1λ^6-benzo[1,2,4]thiadiazin-3-one]",,114 to 116,

# Now from value to compound, other results behind:
"IC50 [1, 2] [nM]",melting point [°C],Structure (SMILES),IC50 [1] [nM]
2.2,96 to 98,"CN1CCN(c2cc(Cl)cc3c2S(=O)(=O)N(Cc2cccc(Br)c2)C(=O)N3Cc2ccccc2)CC1 [Example 9, 4-Benzyl-2-(3-bromo-benzyl)-6-chloro-8-(4-methyl-piperazin-1-yl)-1,1-dioxo-1,4-dihydro-2H-1λ^6-benzo[1,2,4]thiadiazin-3-one]",
4.4,96 to 98,"CN1CCN(c2cc(Cl)cc3c2S(=O)(=O)N(Cc2cccc(I)c2)C(=O)N3Cc2ccccc2)CC1 [Example 11, 4-Benzyl-6-chloro-2-(3-iodo-benzyl)-8-(4-methyl-piperazin-1-yl)-1,1-dioxo-1,4-dihydro-2H-1λ^6-benzo[1,2,4]thiadiazin-3-one]",
1.4,110 to 111,"CN1CCN(c2cc(Cl)cc3c2S(=O)(=O)N(Cc2ccc(I)cc2)C(=O)N3Cc2ccccc2)CC1 [Example 12, 4-Benzyl-6-chloro-2-(4-iodo-benzyl)-8-(4-methyl-piperazin-1-yl)-1,1-dioxo-1,4-dihydro-2H-1λ^6-benzo[1,2,4]thiadiazin-3-one]",
1.6,148 to 150,"Cc1ccccc1CN1C(=O)N(Cc2ccccc2)c2cc(Cl)cc(N3CCN(C)CC3)c2S1(=O)=O [Example 13, 4-Benzyl-6-chloro-2-(2-methyl-benzyl)-8-(4-methyl-piperazin-1-yl)-1,1-dioxo-1,4-dihydro-2H-1λ^6-benzo[1,2,4]thiadiazin-3-one]",
4.2,172 to 175,"CN1CCN(c2cc(Cl)cc3c2S(=O)(=O)N(Cc2cccc([N+](=O)[O-])c2)C(=O)N3Cc2ccccc2)CC1 [Example 21, 4-Benzyl-6-chloro-8-(4-methyl-piperazin-1-yl)-2-(3-nitro-benzyl)-1,1-dioxo-1,4-dihydro-2H-1λ^6-benzo[1,2,4]thiadiazin-3-one]",
1.7,191 to 193,"COc1cccc(N2C(=O)N(Cc3ccccc3)c3cc(Cl)cc(N4CCN(C)CC4)c3S2(=O)=O)c1 [Example 29, 4-Benzyl-6-chloro-2-(3-methoxy-phenyl)-8-(4-methyl-piperazin-1-yl)-1,1-dioxo-1,4-dihydro-2H-1λ^6-benzo[1,2,4]thiadiazin-3-one]",
4.2,,"CN1CCN(c2cc(Cl)cc3c2S(=O)(=O)N(C)C(=O)N3Cc2ccccc2)CC1 [Example 32, 4-Benzyl-6-chloro-2-methyl-8-(4-methyl-piperazin-1-yl)-1,1-dioxo-1,4-dihydro-2H-1λ^6-benzo[1,2,4]thiadiazin-3-one]",
1.9,116 to 118,"CCCCN1C(=O)N(Cc2ccccc2)c2cc(Cl)cc(N3CCN(C)CC3)c2S1(=O)=O [Example 35, 4-Benzyl-2-butyl-6-chloro-8-(4-methyl-piperazin-1-yl)-1,1-dioxo-1,4-dihydro-2H-1λ^6-benzo[1,2,4]thiadiazin-3-one]",
1.5,155 to 158,"CN1CCN(c2cc(Cl)cc3c2S(=O)(=O)N(CC2CCCCC2)C(=O)N3Cc2ccccc2)CC1 [Example 36, 4-Benzyl-6-chloro-2-cyclohexylmethyl-8-(4-methyl-piperazin-1-yl)-1,1-dioxo-1,4-dihydro-2H-1λ^6-benzo[1,2,4]thiadiazin-3-one]",
4.5,,"CCCCCCCCCCN1C(=O)N(Cc2ccccc2)c2cc(Cl)cc(N3CCN(C)CC3)c2S1(=O)=O [Example 40, 4-Benzyl-6-chloro-2-decyl-8-(4-methyl-piperazin-1-yl)-1,1-dioxo-1,4-dihydro-2H-1λ^6-benzo[1,2,4]thiadiazin-3-one]",
3,,"CCCCCCCCCCN1C(=O)N(Cc2ccccc2)c2cc(Cl)cc(N3CCNCC3)c2S1(=O)=O [Example 67, 4-Benzyl-6-chloro-2-decyl-1,1-dioxo-8-piperazin-1-yl-1,4-dihydro-2H-1λ^6-benzo[1,2,4]thiadiazin-3-one]",

# Source: patent US20100035866A1, “NOVEL SUBSTITUTED-1, 1-DIOXO-BENZO[1,2,4]THIADIAZIN-3ONES, PREPARATION METHOD THEREOF, AND PHARMACEUTICAL COMPOSITION CONTAINING THE SAME” (KOREA RESEARCH INSTITUTE OF CHEMICAL TECHNOLOGY, priority 2006, published 2010)
